Results on 13 compounds are retold here after patent US20250339569A1, “CARBONIC ANHYDRASE IX LIGANDS” (priority 2021, published 2025).

Like-named read-outs stand apart in the source and are kept apart here. Starred links: 1 amine or outer side, 2 acyl side, 3 side chain; linkers in the order of their positions; H or OH if unused. Positions of bridges follow the written chain, without caps; N, C: chain ends. Non-standard residues stand in square brackets, D forms with d. Residues, ends and D or L forms follow the SMILES beside them. *: point of attachment. NH(CH2)3NH(O2Oc(DOTA)) = O=C(O)CN1CCN(CC(=O)O)CCN(CC(=O)NCCOCCOCC(=O)NCCCN*)CCN(CC(=O)O)CC1; Phe(3-NHCO(CH2)3SO2NH2) = N[C@@H](Cc1cccc(NC(=O)CCCS(N)(=O)=O)c1)C(=O)O; DOTA = O=C(O)CN1CCN(CC(=O)O)CCN(CC(=O)*)CCN(CC(=O)O)CC1; Propanoyl(3-SO2NH2) = NS(=O)(=O)CCC(=O)*; Phe(4-NH2) = Nc1ccc(C[C@H](N)C(=O)O)cc1; mXylylene = c1cc(C[*:1])cc(C[*:2])c1; X1 = O=C(CN1CCN([*:1])CC1)[*:2]; X31 = NS(=O)(=O)c1coc(C(=O)*)c1; Dap = NC[C@H](N)C(=O)O

A short description of data set [1]: Plasma stability assay, mouse plasma. The settings on record: mouse plasma, 37°C, 24 h.
Data set [2] addresses T1, CAIX-expressing human HT-29 colorectal cancer cells (Homo sapiens, UniProt Q16790).
T1 construct: CAIX-expressing human HT-29 colorectal cancer cells; host or cells: HT-29 human colorectal cancer cells
In words: FACS binding assay (IC50 determination, competition with tracer 3BP-2776 or 3BP-4149). The settings on record: FACS binding assay, HT-29 cells, 4° C., 1 hour, read-out: pIC50 category (activity) (converted). Put shortly:
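HT-29 cells in FACS buffer (PBS, 1% FCS) at 500.000 cells/ml were exposed to compounds competing with a labelled tracer, with biotinylated compounds detected by 1 μg/mL APC-streptavidin for 30 min on ice. APC/Cy5 median fluorescence was read by flow cytometry and IC50 derived by 4PL fit.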
In general terms: In flow cytometry, cells or beads pass a laser one at a time.

In data set [3] the target is T2, human carbonic anhydrase IX (hCAIX-Fc) (Homo sapiens, UniProt Q16790).
T2 construct: purchased SinoBliological (Sino Biological) 10107-H02H
In words: Surface plasmon resonance assay with hCAIX-Fc. The class given is binding. The settings on record: 25° C.; for t1/2 category (activity): SPR dissociation half-life, hCAIX-Fc; for Kd: SPR, hCAIX-Fc captured, read-out: pKD category (activity) (converted). On the technique in general: Surface plasmon resonance follows binding to a sensor surface in real time, without labels.

The mark [4] stands for this setting: competition with tracer 3BP-2776 (10 nM, biotin-labeled).

Regarding `CC(=O)N[C@H](C(=O)N[C@@H](CCCNC(=N)N)C(=O)N[C@H]1CSCc2cccc(c2)CSC[C@@H](C(N)=O)NC(=O)[C@H](CCC(=O)NCCCNC(=O)COCCOCCNC(=O)CN2CCN(CC(=O)O)CCN(CC(=O)O)CCN(CC(=O)O)CC2)NC(=O)[C@H](Cc2c[nH]c3ccccc23)NC(=O)[C@H]([C@@H](C)O)NC(=O)[C@H](CC(C)C)NC(=O)[C@H](Cc2c[nH]c3ccccc23)NC(=O)[C@H](CC(=O)O)NC(=O)[C@H]2CCCN2C(=O)[C@H](CCC(=O)O)NC1=O)C(C)C` [3BP-3845] (Ac-VRCE[dP]DWLTWE(NH(CH2)3NH(O2Oc(DOTA)))C-NH2; linker 3-12 via mXylylene), the “% intact compound remaining (incubation time)” value in data set [1] came to 76%.

`CC(C)C[C@@H]1NC(=O)[C@H](Cc2c[nH]c3ccccc23)NC(=O)[C@@H]2CCCCNC(=O)CC[C@H](NC1=O)C(=O)N[C@@H](Cc1c[nH]c3ccccc13)C(=O)N[C@@H](CO)C(=O)N[C@H](C(N)=O)CSCc1cccc(c1)CSC[C@H](NC(=O)[C@H](Cc1ccc(O)cc1)NC(=O)CN1CCN(CC(=O)O)CCN(CC(=O)O)CCN(CC(=O)O)CC1)C(=O)N[C@@H](CCC(=O)O)C(=O)N1CCC[C@@H]1C(=O)N2` [3BP-4053] ({DOTA}-YCE[dP]KWLEWSC-NH2; linker 2-11 via mXylylene; lactam 5-8): the “% intact compound remaining (incubation time)” value in data set [1] was found to be 91%.

Take `CC(C)C[C@@H]1NC(=O)[C@H](Cc2ccc(NC(=O)CCS(N)(=O)=O)cc2)NC(=O)[C@H](CC(=O)O)NC(=O)[C@H]2CCCN2C(=O)[C@H](CCC(=O)O)NC(=O)[C@@H]2CSCc3cccc(c3)CSC[C@@H](C(N)=O)NC(=O)[C@H](CNC(=O)C[C@H](NC(=O)CN3CCN(C(=O)CN4CCN(CC(=O)O)CCN(CC(=O)O)CCN(CC(=O)O)CC4)CC3)C(=O)N2)NC(=O)[C@H](Cc2c[nH]c3ccccc23)NC(=O)[C@H]([C@@H](C)O)NC1=O` [3BP-4498] ({DOTA}-[X1]DCE[dP]D[Phe(4-NH2)](Propanoyl(3-SO2NH2))LTW[Dap]C-NH2; lactam 2-11; linker 3-12 via mXylylene): the IC50 in data set [2] (competition with tracer 3BP-4149 (3 nM, Cy5-labeled)) is 10 to 79.4 nM. Moreover, in data set [3], the “t1/2 category (activity)” value is on record as “A (t1/2>15.0 minutes)” and the Kd was < 10 nM.

Consider `CC(C)C[C@@H]1NC(=O)[C@H](Cc2ccc(NC(=O)CCS(N)(=O)=O)cc2)NC(=O)[C@H](CC(=O)O)NC(=O)[C@H]2CCCN2C(=O)[C@H](CCC(=O)O)NC(=O)[C@@H](NC(=O)[C@H](CCC(N)=O)NC(=O)CN2CCN(C(=O)CN3CCN(CC(=O)O)CCN(CC(=O)O)CCN(CC(=O)O)CC3)CC2)CSCc2cccc(c2)CSC[C@@H](C(N)=O)NC(=O)[C@H](CO)NC(=O)[C@H](Cc2c[nH]c3ccccc23)NC(=O)[C@H]([C@@H](C)O)NC1=O` [3BP-4500] ({DOTA}-[X1]QCE[dP]D[Phe(4-NH2)](Propanoyl(3-SO2NH2))LTWSC-NH2; linker 3-12 via mXylylene), for which the IC50 in data set [2] (setting [4]) is < 10 nM. For the same compound, in data set [3], the “t1/2 category (activity)” value was “A (t1/2>15.0 minutes)” and the Kd was < 10 nM.

Consider `CC(C)C[C@@H]1NC(=O)[C@H](Cc2cccc(NC(=O)CCCS(N)(=O)=O)c2)NC(=O)[C@H](CC(=O)O)NC(=O)[C@H]2CCCN2C(=O)[C@H](CCC(=O)O)NC(=O)[C@@H]2CSCc3cccc(c3)CSC[C@@H](C(N)=O)NC(=O)[C@H](CNC(=O)CC[C@H](NC(=O)CN3CCN(C(=O)CN4CCN(CC(=O)O)CCN(CC(=O)O)CCN(CC(=O)O)CC4)CC3)C(=O)N2)NC(=O)[C@H](Cc2c[nH]c3ccccc23)NC(=O)[C@H]([C@@H](C)O)NC1=O` [3BP-4502] ({DOTA}-[X1]ECE[dP]D[Phe(3-NHCO(CH2)3SO2NH2)]LTW[Dap]C-NH2; lactam 2-11; linker 3-12 via mXylylene), for which, in data set [2] (setting [4]), the IC50 is < 10 nM. For the same compound, in data set [3], the “t1/2 category (activity)” value is “A (t1/2>15.0 minutes)” and the Kd was < 10 nM.

In the case of `CC(C)C[C@@H]1NC(=O)[C@H](Cc2ccc(NC(=O)CCS(N)(=O)=O)cc2)NC(=O)[C@H](CC(=O)O)NC(=O)[C@H]2CCCN2C(=O)[C@H](CCC(=O)O)NC(=O)[C@@H]2CSCc3cccc(c3)CSC[C@@H](C(N)=O)NC(=O)[C@H](CNC(=O)CC[C@H](NC(=O)CN3CCN(C(=O)CN4CCN(CC(=O)O)CCN(CC(=O)O)CCN(CC(=O)O)CC4)CC3)C(=O)N2)NC(=O)[C@H](Cc2c[nH]c3ccccc23)NC(=O)[C@H]([C@@H](C)O)NC1=O` [3BP-4504] ({DOTA}-[X1]ECE[dP]D[Phe(4-NH2)](Propanoyl(3-SO2NH2))LTW[Dap]C-NH2; lactam 2-11; linker 3-12 via mXylylene), the IC50 in data set [2] (setting [4]) is < 10 nM. For the same compound, in data set [3], the “t1/2 category (activity)” value is “A (t1/2>15.0 minutes)” and the Kd is < 10 nM.

Consider `CC(C)C[C@@H]1NC(=O)[C@H](Cc2ccc(NC(=O)CCS(N)(=O)=O)cc2)NC(=O)[C@H](CC(=O)O)NC(=O)[C@H]2CCCN2C(=O)[C@H](CCC(=O)O)NC(=O)[C@@H]2CSCc3cccc(c3)CSC[C@@H](C(N)=O)NC(=O)[C@H](CNC(=O)CC[C@H](NC(=O)CN3CCN(CC(=O)O)CCN(CC(=O)O)CCN(CC(=O)O)CC3)C(=O)N2)NC(=O)[C@H](Cc2c[nH]c3ccccc23)NC(=O)[C@H]([C@@H](C)O)NC1=O` [3BP-4505] ({DOTA}-ECE[dP]D[Phe(4-NH2)](Propanoyl(3-SO2NH2))LTW[Dap]C-NH2; lactam 1-10; linker 2-11 via mXylylene), for which the IC50 in data set [2] (setting [4]) was < 10 nM. For the same compound, in data set [3], the “t1/2 category (activity)” value is listed as “A (t1/2>15.0 minutes)” and the Kd was < 10 nM.

On to `CC(C)C[C@@H]1NC(=O)[C@H](Cc2cccc(NC(=O)c3cccc(NS(N)(=O)=O)n3)c2)NC(=O)[C@H](CC(=O)O)NC(=O)[C@H]2CCCN2C(=O)[C@H](CCC(=O)O)NC(=O)[C@@H](NC(=O)[C@H](CCC(N)=O)NC(=O)CN2CCN(C(=O)CN3CCN(CC(=O)O)CCN(CC(=O)O)CCN(CC(=O)O)CC3)CC2)CSCc2cccc(c2)CSC[C@@H](C(N)=O)NC(=O)[C@H](CO)NC(=O)[C@H](Cc2c[nH]c3ccccc23)NC(=O)[C@H]([C@@H](C)O)NC1=O` [3BP-4514], for which the IC50 in data set [2] (setting [4]) was < 10 nM. In data set [3], the “t1/2 category (activity)” value was “B (t1/2 between 5.1 and 15.0 minutes)”; the Kd is < 10 nM.

As to `CC(C)C[C@@H]1NC(=O)[C@H](Cc2cccc(NC(=O)CCCC(=O)NO)c2)NC(=O)[C@H](CC(=O)O)NC(=O)[C@H]2CCCN2C(=O)[C@H](CCC(=O)O)NC(=O)[C@@H](NC(=O)[C@H](CCC(N)=O)NC(=O)CN2CCN(C(=O)CN3CCN(CC(=O)O)CCN(CC(=O)O)CCN(CC(=O)O)CC3)CC2)CSCc2cccc(c2)CSC[C@@H](C(N)=O)NC(=O)[C@H](CO)NC(=O)[C@H](Cc2c[nH]c3ccccc23)NC(=O)[C@H]([C@@H](C)O)NC1=O` [3BP-4515], the IC50 in data set [2] (setting [4]) is 10 to 79.4 nM. Also, in data set [3], the “t1/2 category (activity)” value is “C (t1/2 between 2.1 and 5.0 minutes)”; the Kd was < 10 nM.

Consider `CC(C)C[C@@H]1NC(=O)[C@H](Cc2cccc(NC(=O)c3cc(S(N)(=O)=O)co3)c2)NC(=O)[C@H](CC(=O)O)NC(=O)[C@H]2CCCN2C(=O)[C@H](CCC(=O)O)NC(=O)[C@@H](NC(=O)[C@H](CCC(N)=O)NC(=O)CN2CCN(C(=O)CN3CCN(CC(=O)O)CCN(CC(=O)O)CCN(CC(=O)O)CC3)CC2)CSCc2cccc(c2)CSC[C@@H](C(N)=O)NC(=O)[C@H](CO)NC(=O)[C@H](Cc2c[nH]c3ccccc23)NC(=O)[C@H]([C@@H](C)O)NC1=O` [3BP-4788], for which, in data set [2] (setting [4]), the IC50 was < 10 nM. In data set [3], the “t1/2 category (activity)” value is recorded as “A (t1/2>15.0 minutes)” and the Kd is < 10 nM.

As to `CC(C)C[C@@H]1NC(=O)[C@H](Cc2cccc(NC(=O)c3cc(S(N)(=O)=O)c[nH]3)c2)NC(=O)[C@H](CC(=O)O)NC(=O)[C@H]2CCCN2C(=O)[C@H](CCC(=O)O)NC(=O)[C@@H](NC(=O)[C@H](CCC(N)=O)NC(=O)CN2CCN(C(=O)CN3CCN(CC(=O)O)CCN(CC(=O)O)CCN(CC(=O)O)CC3)CC2)CSCc2cccc(c2)CSC[C@@H](C(N)=O)NC(=O)[C@H](CO)NC(=O)[C@H](Cc2c[nH]c3ccccc23)NC(=O)[C@H]([C@@H](C)O)NC1=O` [3BP-4789], the IC50 in data set [2] (setting [4]) is 10 to 79.4 nM. In data set [3], the “t1/2 category (activity)” value is “C (t1/2 between 2.1 and 5.0 minutes)”; the Kd is 10 to 79.4 nM.

With `CC(C)C[C@@H]1NC(=O)[C@H](Cc2cccc(NC(=O)Cn3cc(S(N)(=O)=O)cn3)c2)NC(=O)[C@H](CC(=O)O)NC(=O)[C@H]2CCCN2C(=O)[C@H](CCC(=O)O)NC(=O)[C@@H](NC(=O)[C@H](CCC(N)=O)NC(=O)CN2CCN(C(=O)CN3CCN(CC(=O)O)CCN(CC(=O)O)CCN(CC(=O)O)CC3)CC2)CSCc2cccc(c2)CSC[C@@H](C(N)=O)NC(=O)[C@H](CO)NC(=O)[C@H](Cc2c[nH]c3ccccc23)NC(=O)[C@H]([C@@H](C)O)NC1=O` [3BP-4790], the IC50 in data set [2] (setting [4]) was < 10 nM. In data set [3], the “t1/2 category (activity)” value is “A (t1/2>15.0 minutes)” and the Kd was < 10 nM.

On to `CC(C)C[C@@H]1NC(=O)[C@H](Cc2ccc(NC(=O)c3cc(S(N)(=O)=O)co3)cc2)NC(=O)[C@H](CC(=O)O)NC(=O)[C@H]2CCCN2C(=O)[C@H](CCC(=O)O)NC(=O)[C@@H](NC(=O)[C@H](CCC(N)=O)NC(=O)CN2CCN(C(=O)CN3CCN(CC(=O)O)CCN(CC(=O)O)CCN(CC(=O)O)CC3)CC2)CSCc2cccc(c2)CSC[C@@H](C(N)=O)NC(=O)[C@H](CO)NC(=O)[C@H](Cc2c[nH]c3ccccc23)NC(=O)[C@H]([C@@H](C)O)NC1=O` [3BP-4813] ({DOTA}-[X1]QCE[dP]D[Phe(4-NH2)](X31)LTWSC-NH2; linker 3-12 via mXylylene), for which, in data set [2] (setting [4]), the IC50 is 10 to 79.4 nM. In addition, in data set [3], the “t1/2 category (activity)” value is “C (t1/2 between 2.1 and 5.0 minutes)”; the Kd is 10 to 79.4 nM.
